pEC50: −log10 of the molar value.
How the values were obtained:
STING = STING (Canis lupus familiaris, UniProt A0A8I3MH52); experiment: Dog whole blood (dWB) assay, IFNb secretion by ELISA; assay type: cell-based; conditions: canine Interferon-beta (IFNb) ELISA, 4 h incubation at 37° C.
Procedure, shortened: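 Citrated dog whole blood (stored overnight at 4 °C) was preincubated with compound for 60 min at room temperature, top concentration 10 μM with about 1:4 steps and 0.1% DMSO. It was then incubated 4 h at 37 °C, with cGAMP added only to the high-control wells. Plasma IFNb was measured by canine ELISA (A450), normalised to the cGAMP-stimulated and unstimulated controls, and EC50 was fitted with a 4-parameter logistic model.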

dog STING (dSTING) = experiment: Dog differential scanning fluorimetry (DSF) assay, thermal shift of dog STING protein; assay type: binding; conditions: DSF (dDSF); 100 μM compound, 3 μM dog STING protein; Tm with ligand minus Tm of protein alone
Procedure, shortened: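 Dog STING residues 149–375, His-tag removed by TEV, tested at 3 μM with 100 μM compound, 5× SYPRO Orange and 2% DMSO in 20 mM Tris, 150 mM NaCl, pH 7.5. Heated 15–95 °C in 0.5 °C steps. Tm from Boltzmann fit, duplicates averaged; ΔTm relative to protein alone.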

Sequence of STING (A0A8I3MH52 1-374): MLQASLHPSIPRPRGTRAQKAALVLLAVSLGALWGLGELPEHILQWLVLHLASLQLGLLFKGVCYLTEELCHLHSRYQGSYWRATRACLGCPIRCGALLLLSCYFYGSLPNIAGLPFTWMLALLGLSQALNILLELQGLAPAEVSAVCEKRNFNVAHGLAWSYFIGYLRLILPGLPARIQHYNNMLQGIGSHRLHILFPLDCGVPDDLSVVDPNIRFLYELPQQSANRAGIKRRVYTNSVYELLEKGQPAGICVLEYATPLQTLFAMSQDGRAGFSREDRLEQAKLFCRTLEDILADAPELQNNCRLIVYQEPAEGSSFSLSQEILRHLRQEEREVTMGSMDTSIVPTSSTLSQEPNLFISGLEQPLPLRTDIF

Row | Structure (SMILES) | pEC50 (STING) | Delta TM (dog STING (dSTING))
1 | Cc1cccc2c(-c3c(F)cc(F)c4nn(C)c(F)c34)nn(-c3ccc(N4C[C@@H]5[C@H](C4)[C@H]5C(=O)O)nc3)c12 [Example 76, (1R,5S,6R)-3-(5-{3″,5″,7″-trifluoro-2″,7-dimethyl-1H,2″H-[3,4″- biindazol]-1-yl}pyridin-2-yl)-3-azabicyclo[3.1.0]hexane-6-carboxylic acid] | 6.16 | 33.0 °C
2 | Cc1cccc2c(-c3cccc4nn(C)c(F)c34)nn(-c3ccc(N4CC[C@H](CC(=O)O)C4)nc3)c12 [Example 17, 2-[(3R)-1-(5-{3″-fluoro-2″,7-dimethyl-1H,2″H-[3,4″-biindazol]-1-yl}pyridin-2-yl)pyrrolidin-3-yl]acetic acid] | 6.73 | 35.8 °C
3 | Cc1cccc2c(-c3c(F)cc(F)c4nn(C)cc34)nn(-c3ccc(N4CC5CCC4CC5C(=O)O)nc3)c12 (single isomer, unassigned) [Example 48-3] | 6.74 | 35.4 °C
4 | Cc1cccc2c(-c3cccc4nn(C)c(F)c34)nn(-c3ccc(N4CCOC(CC(=O)O)C4)nc3)c12 (single isomer, unassigned) [Example 72-3] | 5.28 | 28.5 °C
5 | Cc1c(F)ccc2c(-c3c(F)cc(F)c4nn(C)cc34)nn(-c3ccc(N4CCC(C(=O)O)CC4)nc3)c12 [Example 70, 1-(5-{5″,6,7″-trifluoro-2″,7-dimethyl-1H,2″H-[3,4″-biindazol]-1-yl}pyridin-2-yl)piperidine-4-carboxylic acid] | 6.53 | 34.5 °C
6 | Cc1cccc2c(-c3cccc4nn(C)c(F)c34)nn(-c3ccc(N4CC5CCC4CC5C(=O)O)nc3)c12 (single isomer, unassigned) [Example 20-3, 2-(5-{3'-fluoro-2',7-dimethyl-1H,2'H-[3,4'-biindazol]-1-yl}pyridin-2-yl)-2-azabicyclo[2.2.2]octane-5-carboxylic acid] | 6.71 | 35.9 °C
7 | Cc1cccc2c(-c3ccc(F)c4nn(C)c(F)c34)nn(-c3ccc(N4C[C@@H]5[C@H](C4)[C@H]5C(=O)O)nc3)c12 [Example 13, (1R,5S,6R)-3-(5-{3″,7″-Difluoro-2″,7-dimethyl-1H,2″H-[3,4″-biindazol]-1-yl}pyridin-2-yl)-3-azabicyclo[3.1.0]hexane-6-carboxylic acid] | 6.76 | 33.3 °C
8 | Cc1cccc2c(-c3c(F)cc(F)c4nn(C)cc34)nn(-c3ccc(N4CCC(C(=O)O)CC4)nc3)c12 [Example 44, 1-(5-{5″,7″-difluoro-2″,7-dimethyl-1H,2″H-[3,4″-biindazol]-1-yl}pyridin-2-yl)piperidine-4-carboxylic acid] | 6.41 | 34.5 °C
9 | Cc1cc(F)cc2c(-c3cccc4nn(C)c(F)c34)nn(-c3ccc(N4CCC(C(=O)O)CC4)nc3)c12 [Example 58, 1-(5-{3″,5-difluoro-2″,7-dimethyl-1H,2″H-[3,4″-biindazol]-1-yl}pyridin-2-yl)piperidine-4-carboxylic acid] | 6.68 | 33.0 °C
10 | Cc1c(F)ccc2c(-c3c(F)ccc4nn(C)cc34)nn(-c3ccc(N4C[C@@H]5[C@H](C4)[C@H]5C(=O)O)nc3)c12 [Example 64, (1R,5S,6R)-3-(5-{5″,6-difluoro-2″,7-dimethyl-1H,2″H-[3,4″-biindazol]-1-yl}pyridin-2-yl)-3-azabicyclo[3.1.0]hexane-6-carboxylic acid] | 6.18 | 36.5 °C
11 | CC(=O)N1CCN(c2ccc(-n3nc(-c4c(F)cc(F)c5nn(C)cc45)c4cc(F)cc(C)c43)cn2)CC1 [Example 68] | 6.97 | 28.5 °C
12 | CC(=O)N1CCN(c2ccc(-n3nc(-c4cccc5nn(C)c(F)c45)c4cc(F)cc(C)c43)cn2)CC1 [Example 59, 1-[4-(5-{3″,5-difluoro-2″,7-dimethyl-1H,2″H-[3,4″-biindazol]-1-yl}pyridin-2-yl)piperazin-1-yl]ethan-1-one] | 6.68 | 22.0 °C
13 | Cc1cccc2c(-c3c(F)ccc4nn(C)c(F)c34)nn(-c3ccc(N4C[C@@H]5[C@H](C4)[C@H]5C(=O)O)nc3)c12 [Example 74, (1R,5S,6R)-3-(5-{3″,5″-difluoro-2″,7-dimethyl-1H,2″H-[3,4″-biindazol]-1-yl}pyridin-2-yl)-3-azabicyclo[3.1.0]hexane-6-carboxylic acid] | 6.79 | 36.4 °C
14 | Cc1cccc2c(-c3ccc(F)c4nn(C)c(F)c34)nn(-c3ccc(N4CC[C@H](CC(=O)O)C4)nc3)c12 [Example 55, 2-[(3R)-1-(5-{3″,7″-difluoro-2″,7-dimethyl-1H,2″H-[3,4″-biindazol]-1-yl}pyridin-2-yl)pyrrolidin-3-yl]acetic acid] | 6.70 | 34.5 °C
15 | CC(=O)N1CC2CCC1CN2c1ccc(-n2nc(-c3cccc4nn(C)c(F)c34)c3cccc(C)c32)cn1 (stereo not shown) [Example 23, 1-[5-(5-{3″-fluoro-2″,7-dimethyl-1H,2″H-[3,4″-biindazol]-1-yl}pyridin-2-yl)-2,5-diazabicyclo[2.2.2]octan-2-yl]ethan-1-one] | 6.66 | 29.6 °C
16 | CC(=O)N1CCN(c2ccc(-n3nc(-c4c(Cl)ccc5nn(C)cc45)c4cccc(C)c43)cn2)CC1 [Example 78] | 6.09 | 18.4 °C
17 | Cc1cccc2c(-c3ccc(F)c4nn(C)cc34)nn(-c3ccc(N4C[C@@H]5[C@H](C4)[C@H]5C(=O)O)nc3)c12 [Example 3, (1R,5S,6R)-3-(5-{7″-Fluoro-2″,7-dimethyl-1H,2″H-[3,4″-biindazol]-1-yl}pyridin-2-yl)-3-azabicyclo[3.1.0]hexane-6-carboxylic acid] | 6.14 | 32.2 °C
